Laboratory results published in patent US20240287079A1, “6-AMINOPYRAZOLOPYRIMIDINE COMPOUND AND PHARMACEUTICAL USE THEREOF” (Japan Tobacco Inc., priority 2021, published 2024).

What follows are compounds tested against NLRP3 inflammasome (Homo sapiens (Human), UniProt Q96P20) (assay: Evaluation of NLRP3 inflammasome inhibitory activity (inhibition of IL-1β production in LPS/Nigericin-stimulated THP1-Null cells)). Settings: IL-1β production in THP1-Null cells, PMA, LPS 1 μg/mL, Nigericin 7.5 μmol/L, AlphaLISA.
Chain of NLRP3 inflammasome (Q96P20 whole entry): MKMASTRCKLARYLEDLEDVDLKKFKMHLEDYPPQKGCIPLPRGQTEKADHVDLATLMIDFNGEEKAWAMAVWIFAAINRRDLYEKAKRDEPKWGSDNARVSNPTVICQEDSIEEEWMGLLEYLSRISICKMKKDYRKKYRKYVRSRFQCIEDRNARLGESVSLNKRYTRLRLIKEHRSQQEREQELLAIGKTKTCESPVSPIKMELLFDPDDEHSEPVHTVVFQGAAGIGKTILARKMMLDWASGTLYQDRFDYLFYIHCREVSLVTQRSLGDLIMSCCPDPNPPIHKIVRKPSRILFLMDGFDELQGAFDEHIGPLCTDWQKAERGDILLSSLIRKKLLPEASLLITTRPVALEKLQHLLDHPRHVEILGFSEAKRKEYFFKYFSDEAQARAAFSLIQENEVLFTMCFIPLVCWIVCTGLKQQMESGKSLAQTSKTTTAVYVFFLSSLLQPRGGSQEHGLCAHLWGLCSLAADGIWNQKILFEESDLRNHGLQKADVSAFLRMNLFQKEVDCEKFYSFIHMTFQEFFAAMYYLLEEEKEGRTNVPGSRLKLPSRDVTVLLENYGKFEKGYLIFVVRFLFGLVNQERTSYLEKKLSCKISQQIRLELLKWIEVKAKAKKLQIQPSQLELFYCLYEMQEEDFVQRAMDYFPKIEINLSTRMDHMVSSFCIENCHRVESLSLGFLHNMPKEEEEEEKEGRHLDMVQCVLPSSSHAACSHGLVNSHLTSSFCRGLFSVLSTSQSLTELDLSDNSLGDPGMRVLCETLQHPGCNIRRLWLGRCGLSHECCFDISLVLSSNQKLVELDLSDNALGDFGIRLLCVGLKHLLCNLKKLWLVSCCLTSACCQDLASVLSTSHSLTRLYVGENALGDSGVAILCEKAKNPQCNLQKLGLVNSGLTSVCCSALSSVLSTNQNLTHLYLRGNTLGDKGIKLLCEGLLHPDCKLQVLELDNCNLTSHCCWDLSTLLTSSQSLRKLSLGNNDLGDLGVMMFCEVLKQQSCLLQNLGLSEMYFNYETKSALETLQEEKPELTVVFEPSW
Format: cell-based
In short: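 THP1-Null cells primed with 1 μg/mL LPS, then treated with test compound; supernatant IL-1β quantified by AlphaLISA. Inhibition calculated with blank wells as 100% and control wells as 0%.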
With `Cc1cc(C(F)(F)F)cc(C)c1-n1cc2c(=O)[nH]c(N3CC4CCC(C3)O4)nc2n1` [Example 295] the IC50 was 20 nM. In the case of `Cc1cc(Br)cc(Cl)c1-n1cc2c(=O)[nH]c(N3CC4CC(C3)O4)nc2n1` [Example 296], the IC50 is reported as 14 nM. Work on `Cc1cc(C2CC2)cc(Cl)c1-n1cc2c(=O)[nH]c(N3CC4CC(C3)O4)nc2n1` [Example 297] yielded an IC50 of 9.9 nM. With `Cc1cc(OC(F)F)cc(C)c1-n1cc2c(=O)[nH]c(N3CCOCC3)nc2n1` [Example 298, 2-(4-(difluoromethoxy)-2,6-dimethylphenyl)-6-morpholino-2,5-dihydro-4H-pyrazolo[3,4-d]pyrimidin-4-one] the IC50 was 27 nM. With `Cc1cc(C2CC2)cc(F)c1-n1cc2c(=O)[nH]c(N3C[C@H]4C[C@@H]3CO4)nc2n1` [Example 299] the IC50 was 17 nM. `Cc1cc(C2CC2)cc(F)c1-n1cc2c(=O)[nH]c(N3C[C@@H]4C[C@H]3CO4)nc2n1` [Example 300] was tested, and the IC50 was 15 nM. Compound `Cc1cc(C(C)C)cc(C)c1-n1cc2c(=O)[nH]c(N3CCOCC3)nc2n1` [Example 301] has an IC50 of 21 nM. With `CCOc1cc(Br)ccc1-n1cc2c(=O)[nH]c(N3CCOCC3)nc2n1` [Example 302] the IC50 was 130 nM. `CC(C)Oc1cc(Br)ccc1-n1cc2c(=O)[nH]c(N3CCOCC3)nc2n1` [Example 303] was tested, and the IC50 was 88 nM. `COc1cc(Br)ccc1-n1cc2c(=O)[nH]c(N3CCOCC3)nc2n1` [Example 304] gave an IC50 of 65 nM. `O=c1[nH]c(N2CCOCC2)nc2nn(-c3ccc(Br)cc3OC3CCC3)cc12` [Example 305] was tested, and the IC50 was 48 nM. For `CC(C)(C)c1ccc(-n2cc3c(=O)[nH]c(N4CCOCC4)nc3n2)c(Br)c1` [Example 306], the IC50 was 85 nM. With `COc1ccc(-n2cc3c(=O)[nH]c(N4CCCC4)nc3n2)c(Br)c1` [Example 307] the IC50 was 11 nM. `Cc1cc(Br)cc(C)c1-n1cc2c(=O)[nH]c(N3CCCO3)nc2n1` [Example 308] gave an IC50 of 170 nM. In the case of `O=c1[nH]c(N2C[C@H]3C[C@@H]2CO3)nc2nn(-c3ccc(Br)cc3C(O)C3CC3)cc12` (stereo partly shown) [Example 309], the IC50 is reported as 110 nM. With `Cc1cc(Br)cc(C)c1-n1cc2c(=O)n(C)c(N3CC4CC(C3)O4)nc2n1` [Example 310] the IC50 was 450 nM. `Cn1c(N2CC3CC(C2)O3)nc2nn(-c3ccc(Br)cc3C(F)(F)F)cc2c1=O` [Example 311] gave an IC50 of 320 nM. Work on `Cc1cc(C2CC2)cc(C)c1-n1cc2c(=O)n(C)c(N3CC4CC(C3)O4)nc2n1` [Example 312] yielded an IC50 of 250 nM. `Cn1c(N2CC3CC(C2)O3)nc2nn(-c3ccc(C4CC4)cc3C(F)(F)F)cc2c1=O` [Example 313] showed an IC50 of 240 nM. `COC(c1cc(Br)ccc1-n1cc2c(=O)[nH]c(N3C[C@H]4C[C@@H]3CO4)nc2n1)C1CC1` (stereo partly shown) [Example 314] gave an IC50 of 1100 nM. `COC(c1cc(C2CC2)ccc1-n1cc2c(=O)[nH]c(N3C[C@H]4C[C@@H]3CO4)nc2n1)C1CC1` (stereo partly shown) [Example 315] showed an IC50 of 670 nM. `CO[C@@H]1CCN(c2nc3nn(-c4c(C)cc(Br)cc4C)cc3c(=O)[nH]2)C1` [Example 316] gave an IC50 of 6.4 nM. For `CO[C@@H]1CCN(c2nc3nn(-c4c(C)cc(C5CC5)cc4C)cc3c(=O)[nH]2)C1` [Example 317], the IC50 was 5.2 nM. For `CO[C@H]1CCN(c2nc3nn(-c4c(C)cc(Br)cc4C)cc3c(=O)[nH]2)C1` [Example 318], the IC50 was 32 nM. Compound `CO[C@H]1CCN(c2nc3nn(-c4c(C)cc(C5CC5)cc4C)cc3c(=O)[nH]2)C1` [Example 319] has an IC50 of 24 nM. Work on `O=c1[nH]c(N2CCOCC2)nc2nn(-c3ccc(Cl)cc3CC3CC3)cc12` [Example 320] yielded an IC50 of 45 nM. `O=c1[nH]c(N2CCOCC2)nc2nn(-c3ccc(C4CC4)cc3CC3CC3)cc12` [Example 321] showed an IC50 of 29 nM. In the case of `CC(C)Cc1ccccc1-n1cc2c(=O)[nH]c(N3CCOCC3)nc2n1` [Example 322], the IC50 is reported as 510 nM. In the case of `O=c1[nH]c(N2CCOCC2)nc2nn(-c3ccc(OC(F)F)cc3C(F)(F)F)cc12` [Example 325], the IC50 is reported as 31 nM. `Cc1cc(C2CC2)cc(C)c1-n1cc2c(=O)[nH]c(N3CCCOCC3)nc2n1` [Example 326] showed an IC50 of 7.5 nM. `Cc1cc(N2CCC2)cc(C)c1-n1cc2c(=O)[nH]c(N3CCOCC3)nc2n1` [Example 327] gave an IC50 of 80 nM. With `Cc1cc(C2CC2)cc(C)c1-n1cc2c(=O)[nH]c(N3CCC3)nc2n1` [Example 328] the IC50 was 5.8 nM. Work on `Cc1cc(C(F)F)cc(C)c1-n1cc2c(=O)[nH]c(N3CCOCC3)nc2n1` [Example 329] yielded an IC50 of 45 nM. Work on `Cc1cc(C(F)F)cc(C)c1-n1cc2c(=O)[nH]c(N3C[C@H]4C[C@@H]3CO4)nc2n1` [Example 330] yielded an IC50 of 80 nM. `Cc1cc(C2CC2)cc(C)c1-n1cc2c(=O)[nH]c(N3CCCCO3)nc2n1` [Example 333] showed an IC50 of 49 nM. `CONc1nc2nn(-c3c(C)cc(Br)cc3C)cc2c(=O)[nH]1` [Example 336] was tested, and the IC50 was 28 nM. With `COCCN(C)c1nc2nn(-c3c(C)cc(Br)cc3C)cc2c(=O)[nH]1` [Example 337] the IC50 was 47 nM. `Cc1cc(Br)cc(C)c1-n1cc2c(=O)[nH]c(N3CCCCCO3)nc2n1` [Example 338] showed an IC50 of 25 nM. Work on `Cc1cc(Br)cc(C)c1-n1cc2c(=O)[nH]c(N3CCOCCO3)nc2n1` [Example 339] yielded an IC50 of 37 nM. Work on `Cc1cc(Br)cc(C)c1-n1cc2c(=O)[nH]c(N3CCc4cccnc43)nc2n1` [Example 340] yielded an IC50 of 470 nM. `Cc1ccc(C(F)(F)F)c(-n2cc3c(=O)[nH]c(N4CCOCC4)nc3n2)c1` [Example 341] was tested, and the IC50 was 270 nM. `Cc1nn(C(C)C)c(C)c1-n1cc2c(=O)[nH]c(N3CCCC3)nc2n1` [Example 343, 2-(1-isopropyl-3,5-dimethyl-1H-pyrazol-4-yl)-6-(pyrrolidin-1-yl)-2,5-dihydro-4H-pyrazolo[3,4-d]pyrimidin-4-one] showed an IC50 of 750 nM. Work on `Cc1nn(C2CCC2)c(C)c1-n1cc2c(=O)[nH]c(N3CCCC3)nc2n1` [Example 344] yielded an IC50 of 650 nM. For `COc1cc(C)c(-n2cc3c(=O)[nH]c(N4CCCC4)nc3n2)c(C)c1` [Example 345], the IC50 was 16 nM. For `Cc1c(-n2cc3c(=O)[nH]c(N4CCCC4)nc3n2)c(C(F)(F)F)nn1C(C)C` [Example 346], the IC50 was 81 nM. For `CONc1nc2nn(-c3c(C)cc(C4CC4)cc3C)cc2c(=O)[nH]1` [Example 348], the IC50 was 33 nM. With `Cc1cc(C2CC2)cc(C)c1-n1cc2c(=O)[nH]c(N3CCOCCO3)nc2n1` [Example 349, 2-(4-cyclopropyl-2,6-dimethylphenyl)-6-(1,5,2-dioxazepan-2-yl)-2,5-dihydro-4H-pyrazolo[3,4-d]pyrimidin-4-one] the IC50 was 19 nM. Work on `Cc1nn(C2CCCC2)c(C)c1-n1cc2c(=O)[nH]c(N3CCCC3)nc2n1` [Example 350] yielded an IC50 of 1200 nM. `Cc1cc(C(C)(F)F)cc(C)c1-n1cc2c(=O)[nH]c(N3CCOCCO3)nc2n1` [Example 351] gave an IC50 of 74 nM. With `Cc1cc(OC(F)F)cc(C)c1-n1cc2c(=O)[nH]c(N3CCOCCO3)nc2n1` [Example 352] the IC50 was 68 nM. Compound `Cc1cc(Br)cc(C)c1-n1cc2c(=O)[nH]c(N3CCOCC3=O)nc2n1` [Example 353] has an IC50 of 76 nM. For `Cc1cc(OC(F)F)cc(C)c1-n1cc2c(=O)[nH]c(N3CCOCC3=O)nc2n1` [Example 354], the IC50 was 220 nM. `O=c1[nH]c(N2CCOCCO2)nc2nn(-c3ccc(Br)cc3C(F)(F)F)cc12` [Example 355] showed an IC50 of 43 nM.

Same assay, conditions: IL-1β production in THP1-Null cells; test compound 2.4 μM
For `Cc1cc(Br)cc(C)c1-n1cc2c(OC(F)F)nc(N3CCOCC3)nc2n1` [Example 332], the inhibition at 2.4 µM was 33%. Work on `Cc1nn(C)c(C)c1-n1cc2c(=O)[nH]c(N3CCCC3)nc2n1` [Example 342] yielded an inhibition at 2.4 µM of 45%.
